# Data reported in paper PMC10822893, “Selective herbicide safening in dicot plants: a case study in Arabidopsis” (Frontiers in Plant Science, 2024).
# Legend:
# AtGSTU7 = target: T1, AtGSTU7 (Arabidopsis thaliana, UniProt Q9ZW24); assay: UPLC-qTOF MS initial velocities, Michaelis-Menten non-linear regression; type: biochemical; conditions: co-substrate glutathione; unit printed as µmol (amount, not concentration)
# T1 construct: gene GSTU7
# T1 sequence (Q9ZW24 1-227): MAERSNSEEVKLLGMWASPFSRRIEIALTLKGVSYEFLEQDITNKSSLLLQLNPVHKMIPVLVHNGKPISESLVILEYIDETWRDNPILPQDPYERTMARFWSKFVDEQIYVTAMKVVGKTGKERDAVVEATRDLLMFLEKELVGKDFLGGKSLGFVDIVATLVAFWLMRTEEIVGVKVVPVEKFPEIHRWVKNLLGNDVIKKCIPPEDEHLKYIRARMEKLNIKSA
# Source text: UPLC-qTOF MS initial velocities, Michaelis-Menten non-linear regression on AtGSTU7
# AtGSTU19 = target: T2, AtGSTU19 (Arabidopsis thaliana, UniProt Q9ZRW8); assay: as above; type: biochemical; conditions: co-substrate glutathione; unit printed as µmol (amount, not concentration)
# T2 construct: gene GSTU19
# T2 sequence (Q9ZRW8 whole entry): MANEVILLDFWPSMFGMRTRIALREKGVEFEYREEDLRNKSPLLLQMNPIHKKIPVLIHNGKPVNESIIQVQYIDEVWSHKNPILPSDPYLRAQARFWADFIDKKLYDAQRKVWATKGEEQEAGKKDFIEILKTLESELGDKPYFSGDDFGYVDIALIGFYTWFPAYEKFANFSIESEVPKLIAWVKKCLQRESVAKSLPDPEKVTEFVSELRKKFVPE
# Source text: UPLC-qTOF MS initial velocities, Michaelis-Menten non-linear regression on AtGSTU19
smiles,measurement,setting,value
CC(C)N(C(=O)COc1nnc(C(F)(F)F)s1)c1ccc(F)cc1 [flufenacet],Km,AtGSTU7,109.57 µmol
same,Km,AtGSTU19,95.08 µmol
